The results in this text go back to ChEMBL document CHEMBL4811314, “Synthesis, biochemical, and biological evaluation of C2 linkage derivatives of amino sugars, inhibitors of glucokinase from Trypanosoma cruzi” (Bioorg Med Chem Lett, 2021).

Molecules are shown by their SMILES. pIC50, pKi: −log10 of the molar value. Where only a bound is given, the exact number is not on record here.

The subject of data set [1] is Trypanosoma cruzi. Description: Antitrypanosomal activity against intracellular Trypanosoma cruzi Tulahuen […] infected in mouse NIH/3T3 cells assessed as parasite growth inhibition. Format: functional, organism-based. Conditions: NIH3T3.
Data set [2] deals with T1, Hexokinase-4 (Homo sapiens, UniProt P35557).
T1 sequence (P35557 whole entry): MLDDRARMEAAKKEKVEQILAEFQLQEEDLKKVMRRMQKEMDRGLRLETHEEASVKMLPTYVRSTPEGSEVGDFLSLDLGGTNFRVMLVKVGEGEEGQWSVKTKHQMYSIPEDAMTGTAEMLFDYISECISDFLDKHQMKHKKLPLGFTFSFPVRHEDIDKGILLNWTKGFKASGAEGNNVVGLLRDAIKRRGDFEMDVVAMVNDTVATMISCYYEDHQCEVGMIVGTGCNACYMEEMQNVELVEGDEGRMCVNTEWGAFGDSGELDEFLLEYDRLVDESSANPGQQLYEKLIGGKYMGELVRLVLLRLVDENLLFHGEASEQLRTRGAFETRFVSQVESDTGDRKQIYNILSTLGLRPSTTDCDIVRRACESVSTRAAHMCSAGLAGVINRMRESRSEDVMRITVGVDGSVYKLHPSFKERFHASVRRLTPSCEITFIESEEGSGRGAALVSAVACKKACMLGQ
Kind of data set: Inhibition of human hexokinase-4 at 20 uM relative to control.

Data set [3] in a line: Inhibition of Trypanosoma cruzi glucokinase.
Data set [4] has as its system Saccharomyces cerevisiae. Description: Inhibition of Saccharomyces cerevisiae G6PDH at 20 uM relative to control.
The test system of data set [5] is Trypanosoma cruzi. Description: Antitrypanosomal activity against Trypanosoma cruzi Tulahuen amastigotes infected in mouse NIH/3T3 cells assessed as parasite growth inhibition incubated for 4 days in glucose rich DMEM medium. Format: functional, organism-based. The settings on record: NIH3T3, 96 h.
The nature of data set [6]: Inhibition of His6-tagged Trypanosoma cruzi glucokinase using D-glucose and ATP as substrates.
Data set [7] in a line: Competitive inhibition of Trypanosoma cruzi glucokinase using D-glucose as substrate in presence of ATP by Lineweaver-Burk plot analysis.
The subject of data set [8] is Trypanosoma cruzi. Kind of data set: Competitive inhibition of Trypanosoma cruzi glucokinase assessed as Vmax using varying levels of D-glucose as substrate in presence of ATP by Lineweaver-Burk plot analysis.
Data set [9] concerns Trypanosoma cruzi. Description: Competitive inhibition of Trypanosoma cruzi glucokinase assessed as Km using varying levels of D-glucose as substrate in presence of ATP by Lineweaver-Burk plot analysis.

A word on the pIC50: it is −log10 of the IC50, conventionally taken in molar units. As a reminder, the inhibition is the relative decrease from the control value, in per cent. A low value points to a weak effect. The term pKi denotes the Ki on a negative log10 scale, so that one unit is a factor of ten. On to `O=C(N[C@@H]1C(O)O[C@H](CO)[C@@H](O)[C@@H]1O)c1ccc(CCl)cc1` (stereo partly specified), for which the pIC50 in data set [1] is 4.42. In [2], this compound had an inhibition at 20 µM of 28.1%. The same compound gave a negative-log Ki (pKi) in data set [3] of less than 3.30. This compound also showed an inhibition in [4] of 0%.

Regarding `O=C(N[C@H]1C(O)O[C@H](CO)[C@H](O)[C@@H]1O)c1ccccc1` (stereo partly specified), in data set [1], the pIC50 is 4.26. 20 µM produced 37.8% inhibition in data set [2]. The compound also had a pKi in [3] of less than 3.30. Further, the inhibition in [4] worked out at 0%.

In the case of `O=C(N[C@H]1C(O)O[C@H](CO)[C@H](O)[C@@H]1O)c1cc2ccccc2o1` (stereo partly specified), in [1], the pIC50 was 4.18. In data set [2], this compound displayed an inhibition at 20 µM of 36.5%. This compound showed a pKi in data set [3] of less than 3.30. Further, in [4], the inhibition worked out at 0%.

In the case of `O=C(N[C@H]1C(O)O[C@H](CO)[C@@H](O)[C@@H]1O)OCc1ccccc1` (stereo partly specified), the pIC50 in data set [5] was 4.31. Moreover, the pKi in data set [6] was 6.15. Besides, testing at 20 µM in [2] gave an inhibition of 2%. In data set [4], the inhibition was 0%.

Consider `C[C@@H]1[C@H](O)[C@@H](C)/C=C/C=C/C=C/C=C/C=C/C=C/C=C/[C@H](O[C@@H]2O[C@H](C)[C@@H](O)[C@H](N)[C@@H]2O)C[C@@H]2O[C@](O)(C[C@@H](O)C[C@@H](O)[C@H](O)CC[C@@H](O)C[C@@H](O)CC(=O)O[C@H]1C)C[C@H](O)[C@H]2C(=O)O` [AMPHOTERICIN B], for which the pIC50 in [1] is 5.73.

Broadly, the Vmax is the top rate of the reaction or transport when substrate is in excess. The term Km denotes the substrate concentration at which the rate is half of its maximum. On to `O=C(N[C@H]1C(O)O[C@H](CO)[C@@H](O)[C@@H]1O)c1cc2ccccc2o1` (stereo partly specified), for which the pKi in data set [7] and in data set [3] was 3.97 in each case. For the same compound, the Vmax in data set [8] was 8.1 10^-5M/min. Further, the pIC50 in data set [1] was 4.56. In [2], this compound had an inhibition at 20 µM of 25.2%. In data set [9], the Km came out at 890 µM. In addition, the inhibition in [4] was determined as 0%.

For `O=C(N[C@H]1C(O)O[C@H](CO)[C@H](O)[C@@H]1O)c1ccc(CCl)cc1` (stereo partly specified), the pIC50 in data set [1] was 4.42. The inhibition at 20 µM in [2] was determined as 8.3%. Moreover, in data set [3], the negative logarithm of the Ki (pKi) was less than 3.30. Moreover, in data set [4], the inhibition came out at 0%.

For `O=C(N[C@H]1C(O)O[C@H](CO)[C@H](O)[C@@H]1O)c1ccoc1` (stereo partly specified), the pIC50 in [1] is 4.44. In [2], this compound registered an inhibition at 20 µM of 47.2%. Further, the pKi in data set [3] is less than 3.30. Further, the inhibition in data set [4] is 0%.

On to `O=C(N[C@@H]1C(O)O[C@H](CO)[C@@H](O)[C@@H]1O)c1cc2ccccc2o1` (stereo partly specified), for which, in data set [1], the pIC50 is 4.37. Besides, the inhibition at 20 µM in data set [2] amounted to 12.4%. The pKi in data set [3] is less than 3.30. Besides, the inhibition in data set [4] was 0%.

In the case of `O=C(N[C@H]1C(O)O[C@H](CO)[C@@H](O)[C@@H]1O)c1cccc(Br)c1` (stereo partly specified), the pIC50 in [1] was 4.18. This compound had an inhibition at 20 µM in data set [2] of 31.2%. This compound had a pKi in [3] of 4.74. This compound showed an inhibition in data set [4] of 0%.

Consider `O=C(N[C@@H]1C(O)O[C@H](CO)[C@@H](O)[C@@H]1O)c1ccccc1` (stereo partly specified), for which the negative-log IC50 (pIC50) in data set [1] is 4.36. In [2], this compound showed an inhibition at 20 µM of 55.5%. Also, the pKi in [3] was less than 3.30. The same compound returned an inhibition in [4] of 0%.

In the case of `O=C(N[C@@H]1C(O)O[C@H](CO)[C@@H](O)[C@@H]1O)c1ccoc1` (stereo partly specified), in data set [1], the pIC50 was 4.17. Further, in data set [2], at 20 µM the inhibition was 31.6%. The same compound had a pKi in data set [3] of less than 3.30. Besides, the inhibition in data set [4] turned out to be 0%.

Take `O=C(N[C@H]1C(O)O[C@H](CO)[C@@H](O)[C@@H]1O)c1ccc(CCl)cc1` (stereo partly specified): the pIC50 in data set [1] is 4.28. Moreover, the inhibition at 20 µM in [2] was 35.8%. The compound further had a negative logarithm of the Ki (pKi) in [3] of less than 3.30. The compound also returned an inhibition in [4] of 0%.

In the case of `O=C(N[C@H]1C(O)O[C@H](CO)[C@@H](O)[C@@H]1O)c1ccccc1` (stereo partly specified), in [5], the pIC50 was 4.79. For the same compound, the pKi in data set [6] is 4.49. In data set [2], this compound displayed an inhibition at 20 µM of 39.2%. Besides, the inhibition in [4] amounted to 0.5%.

As for `O=C(N[C@H]1C(O)O[C@H](CO)[C@@H](O)[C@@H]1O)c1ccoc1` (stereo partly specified), the pKi in data set [7] and in [3] was 4.82 throughout. Moreover, the Vmax in [8] was 6.3 10^-5M/min. In addition, the pIC50 in data set [1] is 4.30. Further, in [2], at 20 µM the inhibition was 41.2%. In addition, the Km in data set [9] came out at 840 µM. In addition, in [4], the inhibition amounted to 0%.

For `O=C(Cn1ccnc1[N+](=O)[O-])NCc1ccccc1` [BENZNIDAZOLE], the pIC50 in [5] was 5.95.

`O=C(N[C@@H]1C(O)O[C@H](CO)[C@@H](O)[C@@H]1O)c1cccc(Br)c1` (stereo partly specified): the pIC50 in data set [1] is 4.42. For the same compound, in [2], testing at 20 µM gave an inhibition of 27%. Moreover, the pKi in data set [3] was 3.49. Also, the inhibition in data set [4] stood at 0%.

On to `Cc1ccc(C(=O)N[C@@H]2C(O)O[C@H](CO)[C@@H](O)[C@@H]2O)o1` (stereo partly specified), for which the pIC50 in data set [1] is less than 4.10. At 20 µM the inhibition in data set [2] was 48.8%. The same compound showed a pKi in data set [3] of 3.32. In addition, the inhibition in [4] is 0%.

Consider `O=C(N[C@H]1C(O)O[C@H](CO)[C@H](O)[C@@H]1O)c1cccc(Br)c1` (stereo partly specified), for which the pIC50 in data set [1] was 4.70. The inhibition at 20 µM in data set [2] stood at 29.8%. Also, the pKi in data set [3] was less than 3.30. Also, the inhibition in data set [4] came out at 0%.
